Laboratory results: patent US4435392A, “2,5-Benzodiazocine derivatives and salts thereof, as well as pharmaceutical agent comprising as effective component at least one of the derivatives and salts” (Sanwa Kagaku Kenkyusho Co. Ltd., priority 1982, dated 1984)

How the values were obtained:
[1] = tested on: dd-male mice; assay: Analgetic action, Haffner's Method (tail root clamping); format: in vivo; settings: Mus musculus, ip, abdominal cavity, hydrochloride
Experimental: In accordance with a usual manner, dd-male mice of 14 to 22 g were classified into groups, each having 10 mice, compounds to be tested in various concentrations were given to each mouse and then clamped a tail root of the mouse with use of Koffer clamps in each time period of having lapsed 15, 30, 45 and 60 minutes from the dosage to measure an analgetic action of the compounds by judging as "negative" when the tested mouse cries or looks back.
Further the number of deaths was counted in each 10 mice group after having lapsed 2 hours from dosage of each testing agent into abdominal cavity and then ED50, LD50 and 95% confidence limit were calculated based on the Richfield and Wilcoxson Methods to compare the results obtained on the agents.

[2] = tested on: dd-male mice; assay: Analgetic action, Acetic Acid Stretching Method; format: in vivo; settings: Mus musculus, po, orally given 30 minutes before acetic acid, hydrochloride
Experimental: (ii) Acetic Acid Stretching Method
The dd-male mice of 17 to 23 g were classified into groups, each having 10 mice, and 0.7% aqueous solution of acetic acid was dosed into abdominal cavity for each mouse in a ratio of 10 ml/kg and then a stretching condition was observed over 5 minutes of having lapsed 10 to 15 minutes from the dosage. The test was repeated 4 times to obtain total measured value and an inhibition ratio was measured from number of stretching actions. A judgement has been given in "Yes" or "No" system.
According to the Richfield and Wilcoxson Methods, ED50, LD50 and 95% confidence limit were calculated and compared the same for each testing agents and Control.
Each testing agent and control was orally given 30 minutes before the dosage of the acetic acid in a ratio of 100 mg/10 ml/kg.

[3] = tested on: Wister type male rats; assay: Antipyretic Action (rectal body temperature); format: in vivo
Experimental: Wister type male rats of 100 to 140 g were classified into groups, each having 4 to 5 rats. The rats were abstrained from food for 1 day and then each rat was entered in each cage. The body temperature was measured under a constant room temperature through the rectum. This body temperature measurement was carried out in 3 times before a dosage of agents as well as after lapsed 30, 60, 90, 120 and 150 minutes from the dosage.
Judgements have been given based on following 5 measures.

[4] = tested on: dd-type male mice; assay: Effect on Sleep (pentobarbital sleeping time); format: in vivo; settings: pentobarbital 40 mg/kg
Experimental: The dd-type male mice of 16 to 24 g were classified into groups, each having 10 mice. To each mouse, a testing agent was dosed through abdominal cavity and after having lapsed 30 minutes from the dosage, 40 mg/kg of pentobarbital was also dosed through abdominal cavity to measure a time of sleeping period. The sleeping time in question designates a time period, wherein a facing reflex disappears. Judgements were given based on following 7 measures.

[5] = Acute Toxity, rat; settings: in vivo
Experimental: (§1) The dd-type 5 weeks male mice of 21 to 26 g and Wister type 5 weeks male rats of 110 to 150 g were classified into groups, each having 10 mice or rats. After having given testing agents to the mice and rats, general conditions, number of deaths in each day and body weight changes have been observed over 7 days. An LD50 value was calculated based on total number of deaths during the 7 days testing time period, in accordance with the Richfield-Wilcoxson Method. The surviving animals were dissected to visually observe internal organs thereof.

[6] = Acute Toxity, mouse; settings: in vivo
Experimental: as §1

[7] = tested on: dd-type male mice; assay: Effect on Sleep (pentobarbital sleeping time); format: in vivo; settings: pentobarbital 40 mg/kg; remark: listed apart in the source
[8] = in abdominal cavity 50 mg/Kg, hydrochloride
[9] = intravenous injectional dosage, 7 days
[10] = ip, in abdominal cavity, 7 days
[11] = in abdominal cavity 25 mg/Kg (control)

Q: For `COc1ccc(C2c3ccccc3CN(CCCC(=O)c3ccc(F)cc3)CCN2C)cc1` (stereo not drawn) [Compound I-a, 5-[3-(p-fluorobenzoyl)propyl]-1,2,3,4,5,6-hexahydro-1-(p-methoxyphenyl)-2-methyl-2,5-benzodiazocine], which ED50 [1] is on record?
A: Its ED50 is 18.4 mg/kg.

Q: What about the ED50 [2] of the same compound?
A: The ED50 was 40.5 mg/kg.

Q: What about the “Antipyretic Action” value [3, 8] of the same compound?
A: The value was “++ (showing decrease of 1° to 2 °C and obtaining at least one result of a notifiable difference of P<1%)”.

Q: And the “Sleep Incrementing Action” value ([4]; in abdominal cavity 50 mg/Kg)?
A: Its value is “++ (sleeping time was extended by 30 to 60 minutes in comparison with control)”.

Q: What about the LD50 at 168 h [5, 9] of the same compound?
A: The LD50 at 168 h was 20 mg/kg.

Q: And the LD50 at 168 h ([5]; oral dosage, 7 days)?
A: Its LD50 at 168 h is 3500 mg/kg.

Q: What about the LD50 at 168 h [6, 9] of the same compound?
A: Its LD50 at 168 h is 30.1 mg/kg.

Q: And the LD50 at 168 h [6, 10]?
A: The LD50 at 168 h was 179 mg/kg.

Q: What about the LD50 at 168 h ([6]; oral dosage, 7 days) of the same compound?
A: Its LD50 at 168 h is 1500 mg/kg.

Q: What about the “Sleep Incrementing Action” value ([7]; oral dosage 100 mg/Kg) of the same compound?
A: Its value is “+++ (sleeping time was extended by 60 minutes or more in comparison with control)”.

Q: For `COc1ccc(CCN2CCN(C)C(c3ccc(OC)cc3)c3ccccc3C2)cc1` (stereo not drawn) [Compound I-b, 5-(p-methoxyphenethyl)-1,2,3,4,5,6-hexahydro-1-(p-methoxyphenyl)-2-methyl-2,5-benzodiazocine], which ED50 [1] is on record?
A: The ED50 was 26.2 mg/kg.

Q: And the ED50 [2]?
A: Its ED50 is 48.5 mg/kg.

Q: And the “Antipyretic Action” value [3, 8]?
A: Its value is “++ (showing decrease of 1° to 2 °C and obtaining at least one result of a notifiable difference of P<1%)”.

Q: And the “Sleep Incrementing Action” value ([4]; in abdominal cavity 50 mg/Kg)?
A: The value was “+++ (sleeping time was extended by 60 minutes or more in comparison with control)”.

Q: And the LD50 at 168 h [5, 9]?
A: The LD50 at 168 h was 20.7 mg/kg.

Q: What about the LD50 at 168 h ([5]; oral dosage, 7 days) of the same compound?
A: The LD50 at 168 h was 4090 mg/kg.

Q: What about the LD50 at 168 h [6, 9] of the same compound?
A: The LD50 at 168 h was 33 mg/kg.

Q: What about the LD50 at 168 h [6, 10] of the same compound?
A: The LD50 at 168 h was 124 mg/kg.

Q: And the LD50 at 168 h ([6]; oral dosage, 7 days)?
A: The LD50 at 168 h was 623 mg/kg.

Q: And the “Sleep Incrementing Action” value ([7]; oral dosage 100 mg/Kg)?
A: Its value is “+++ (sleeping time was extended by 60 minutes or more in comparison with control)”.

Q: What does the source list for `CN1CCN(CCCC(=O)c2ccc(F)cc2)Cc2ccccc2C1c1ccccc1` (stereo not drawn) [Compound I-c, 5-[3-(p-fluorobenzoyl)propyl]-1,2,3,4,5,6-hexahydro-1-phenyl-2-methyl-2,5-benzodiazocine]?
A: ED50 [1]: 44.2 mg/kg; ED50 [2]: 5.7 mg/kg; Antipyretic Action [3, 8]: ++ (showing decrease of 1° to 2 °C and obtaining at least one result of a notifiable difference of P<1%); Sleep Incrementing Action ([4]; in abdominal cavity 50 mg/Kg): +++ (sleeping time was extended by 60 minutes or more in comparison with control); LD50 at 168 h [5, 9]: 23.8 mg/kg; LD50 at 168 h ([5]; oral dosage, 7 days): > 4000 mg/kg; LD50 at 168 h [6, 9]: 29 mg/kg; LD50 at 168 h [6, 10]: 208 mg/kg; LD50 at 168 h ([6]; oral dosage, 7 days): 1700 mg/kg; Sleep Incrementing Action ([7]; oral dosage 100 mg/Kg): +++ (sleeping time was extended by 60 minutes or more in comparison with control)

Q: For `c1ccc(C2NCCN(CC3CC3)Cc3ccccc32)cc1` (stereo not drawn) [Compound I-d, 5-cyclopropylmethyl-1,2,3,4,5,6-hexahydro-1-phenyl-2,5-benzodiazocine], which ED50 [1] is on record?
A: Its ED50 is 17.1 mg/kg.

Q: What about the ED50 [2] of the same compound?
A: The ED50 was 13.5 mg/kg.

Q: What about the “Antipyretic Action” value [3, 8] of the same compound?
A: Its value is “++ (showing decrease of 1° to 2 °C and obtaining at least one result of a notifiable difference of P<1%)”.

Q: What about the “Sleep Incrementing Action” value ([4]; in abdominal cavity 50 mg/Kg) of the same compound?
A: Its value is “-- (sleeping time was shortened by 30 to 60 minutes in comparison with control)”.

Q: And the LD50 at 168 h [5, 9]?
A: Its LD50 at 168 h is 17.8 mg/kg.

Q: What about the LD50 at 168 h ([5]; oral dosage, 7 days) of the same compound?
A: Its LD50 at 168 h is 485 mg/kg.

Q: And the LD50 at 168 h [6, 9]?
A: The LD50 at 168 h was 18 mg/kg.

Q: And the LD50 at 168 h [6, 10]?
A: Its LD50 at 168 h is 51.6 mg/kg.

Q: And the LD50 at 168 h ([6]; oral dosage, 7 days)?
A: The LD50 at 168 h was 215 mg/kg.

Q: And the “Sleep Incrementing Action” value ([7]; oral dosage 100 mg/Kg)?
A: Its value is “-- (sleeping time was shortened by 30 to 60 minutes in comparison with control)”.

Q: Which results are given for `CCOC(=O)/C=C/C(=O)Nc1ccc(CCN2CCNC(c3ccccc3)c3ccccc3C2)cc1` (stereo not drawn) [Compound I-e, [5(E)]-ethyl-4-[[4-[2-(1,2,3,4,5,6-hexahydro-1-phenyl-2,5-benzodiazocine)-5-yl]ethyl]phenyl]amino-4-oxo-2-butenoate]?
A: ED50 [1]: 80.3 mg/kg; ED50 [2]: 61.1 mg/kg; Antipyretic Action [3, 8]: ++ (showing decrease of 1° to 2 °C and obtaining at least one result of a notifiable difference of P<1%); Sleep Incrementing Action ([4]; in abdominal cavity 50 mg/Kg): -- (sleeping time was shortened by 30 to 60 minutes in comparison with control); LD50 at 168 h ([5]; po): > 5000 mg/kg; LD50 at 168 h ([6]; ip): > 200 mg/kg; LD50 at 168 h ([6]; po): 938 mg/kg; Sleep Incrementing Action ([7]; oral dosage 100 mg/Kg): ++ (sleeping time was extended by 30 to 60 minutes in comparison with control)

Q: What does the source list for `COc1ccc(C2NCCN(CCCC(=O)c3ccc(F)cc3)Cc3ccccc32)cc1` (stereo not drawn) [Compound I-f, 5-[3-(p-fluorobenzoyl)propyl]-1,2,3,4,5,6-hexahydro-1-(p-methoxyphenyl)-2,5-benzodiazocine]?
A: ED50 [1]: 30.7 mg/kg; ED50 [2]: 11.5 mg/kg; Antipyretic Action [3, 8]: ++ (showing decrease of 1° to 2 °C and obtaining at least one result of a notifiable difference of P<1%); Sleep Incrementing Action ([4]; in abdominal cavity 50 mg/Kg): +++ (sleeping time was extended by 60 minutes or more in comparison with control); LD50 at 168 h [5, 9]: 19.8 mg/kg; LD50 at 168 h ([5]; oral dosage, 7 days): 2890 mg/kg; LD50 at 168 h [6, 9]: 35.9 mg/kg; LD50 at 168 h [6, 10]: 109 mg/kg; LD50 at 168 h ([6]; oral dosage, 7 days): 340 mg/kg; Sleep Incrementing Action ([7]; oral dosage 100 mg/Kg): +++ (sleeping time was extended by 60 minutes or more in comparison with control)

Q: Which “Antipyretic Action” value [3, 11] does the source give for `CN1CCOC(c2ccccc2)c2ccccc2C1` (stereo not drawn) [Nefopam, reference compound] here?
A: Its value is “++ (showing decrease of 1° to 2 °C and obtaining at least one result of a notifiable difference of P<1%)”.

Q: What about the “Sleep Incrementing Action” value [4, 11] of the same compound?
A: The value was “-- (sleeping time was shortened by 30 to 60 minutes in comparison with control)”.

Q: And the LD50 at 168 h [5, 9]?
A: The LD50 at 168 h was 18 mg/kg.

Q: What about the LD50 at 168 h ([5]; oral dosage, 7 days) of the same compound?
A: Its LD50 at 168 h is 595 mg/kg.

Q: What about the LD50 at 168 h [6, 9] of the same compound?
A: The LD50 at 168 h was 36.8 mg/kg.

Q: What about the LD50 at 168 h [6, 10] of the same compound?
A: Its LD50 at 168 h is 72.4 mg/kg.

Q: What about the LD50 at 168 h ([6]; oral dosage, 7 days) of the same compound?
A: Its LD50 at 168 h is 356 mg/kg.

Q: And the “Sleep Incrementing Action” value ([7]; oral dosage 50 mg/Kg (control))?
A: The value was “-- (sleeping time was shortened by 30 to 60 minutes in comparison with control)”.
